Results as given in patent publication US20080312223A1, “Thiazole And Isothiazole Derivatives That Modulate The Activity Of CDK, GSK And Aurora Kinases” (ASTEX THERAPEUTICS LIMITED, priority 2004, published 2008).
Where two headings read alike, the source gives them in different places.

How the values were obtained:
CDK1/CyclinB = target: T1, CDK1/CyclinB (Homo sapiens, UniProt P06493); assay: Activated CDK1/CyclinB kinase inhibitory activity assay; format: biochemical; details: Example 11, read-out: IC50 in the CDK2 assay (stated under the CDK1/CyclinB assay, Example 11)
T1 construct: purchased Upstate Discovery
T1 sequence (P06493 whole entry): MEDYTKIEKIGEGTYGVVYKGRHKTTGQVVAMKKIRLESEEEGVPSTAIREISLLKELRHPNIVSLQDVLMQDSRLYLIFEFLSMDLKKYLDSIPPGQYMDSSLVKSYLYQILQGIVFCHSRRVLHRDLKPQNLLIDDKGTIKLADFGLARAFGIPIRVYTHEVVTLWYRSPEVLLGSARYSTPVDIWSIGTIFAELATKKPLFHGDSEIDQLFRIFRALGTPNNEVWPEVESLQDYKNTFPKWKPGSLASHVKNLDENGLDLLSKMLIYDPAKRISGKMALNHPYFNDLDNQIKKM
T1 sequence (P14635 whole entry partner): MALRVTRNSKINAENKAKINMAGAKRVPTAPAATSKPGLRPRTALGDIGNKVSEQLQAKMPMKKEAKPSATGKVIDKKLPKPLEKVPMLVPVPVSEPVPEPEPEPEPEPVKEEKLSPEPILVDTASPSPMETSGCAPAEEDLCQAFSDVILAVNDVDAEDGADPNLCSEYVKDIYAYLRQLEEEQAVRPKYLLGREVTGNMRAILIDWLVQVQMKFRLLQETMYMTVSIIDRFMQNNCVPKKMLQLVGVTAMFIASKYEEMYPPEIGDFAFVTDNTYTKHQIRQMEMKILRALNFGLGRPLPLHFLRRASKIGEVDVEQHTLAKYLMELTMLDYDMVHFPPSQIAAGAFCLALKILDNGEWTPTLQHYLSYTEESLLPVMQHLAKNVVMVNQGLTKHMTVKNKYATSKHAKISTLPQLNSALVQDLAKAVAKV
Experimental: (§1) Activated CDK2/CyclinA (Brown et al, Nat. Cell Biol., 1, pp 438-443, 1999; Lowe, E. D., et al Biochemistry, 41, pp 15625-15634, 2002) is diluted to 125 pM in 2.5× strength assay buffer (50 mM MOPS pH 7.2, 62.5 mM β-glycerophosphate, 12.5 mM EDTA, 37.5 mM MgCl2, […], 2.5 mM DTT, 2.5 mM sodium orthovanadate, 0.25 mg/ml bovine serum albumin), and 10 μl mixed with 10 μl of histone substrate mix (60 μl bovine histone H1 (Upstate Biotechnology, 5 mg/ml), 940 μl H2O, 35 μCi γ^33P-ATP) and added to 96 well plates along with 5 μl of various dilutions of the test compound in DMSO (up to 2.5%). The reaction is allowed to proceed for 2 to 4 hours before being stopped with an excess of ortho-phosphoric acid (5 μl at 2%).
(§2) γ^33P-ATP which remains unincorporated into the histone H1 is separated from phosphorylated histone H1 on a Millipore MAPH filter plate. The wells of the MAPH plate are wetted with 0.5% orthophosphoric acid, and then the results of the reaction are filtered with a Millipore vacuum filtration unit through the wells. Following filtration, the residue is washed twice with 200 μl of 0.5% orthophosphoric acid. Once the filters have dried, 20 μl of Microscint 20 scintillant is added, and then counted on a Packard Topcount for 30 seconds. The % inhibition of the CDK2 activity is calculated and plotted in order to determine the concentration of test compound required to inhibit 50% of the CDK2 activity (IC50).
CDK1/CyclinB assay.is identical to the CDK2/CyclinA above except that CDK1/CyclinB (Upstate Discovery) is used and the enzyme is diluted to 6.25 nM.

HCT-116 cell line = assay: Anti-proliferative activity, Alamar Blue assay; format: cell-based; details: Homo sapiens, read-out: IC50 against the HCT-116 cell line
Experimental: The anti-proliferative activities of compounds of the invention can be determined by measuring the ability of the compounds to inhibition of cell growth in a number of cell lines. Inhibition of cell growth is measured using the Alamar Blue assay (Nociari, M. M, Shalev, A., Benias, P., Russo, C. Journal of Immunological Methods 1998, 213, 157-167). The method is based on the ability of viable cells to reduce resazurin to its fluorescent product resorufin. For each proliferation assay cells are plated onto 96 well plates and allowed to recover for 16 hours prior to the addition of inhibitor compounds for a further 72 hours. At the end of the incubation period 10% (v/v) Alamar Blue is added and incubated for a further 6 hours prior to determination of fluorescent product at […]. In the case of the non-proliferating cell assay cells are maintained at confluence for 96 hour prior to the addition of inhibitor compounds for a further 72 hours. The number of viable cells is determined by Alamar Blue assay as before. In addition, any morphological changes are recorded. All cell lines can be obtained from ECACC (European Collection of cell Cultures).
In particular, compounds of the invention were tested against the HCT-116 cell line (ECACC Reference: 91091005) derived from human colon carcinoma.

GSK3β (human) = GSK3β (human) (Homo sapiens, UniProt P49841); assay: Inhibitory activity against Glycogen Synthase Kinase-3; format: biochemical
Sequence of GSK3β (human) (P49841 whole entry): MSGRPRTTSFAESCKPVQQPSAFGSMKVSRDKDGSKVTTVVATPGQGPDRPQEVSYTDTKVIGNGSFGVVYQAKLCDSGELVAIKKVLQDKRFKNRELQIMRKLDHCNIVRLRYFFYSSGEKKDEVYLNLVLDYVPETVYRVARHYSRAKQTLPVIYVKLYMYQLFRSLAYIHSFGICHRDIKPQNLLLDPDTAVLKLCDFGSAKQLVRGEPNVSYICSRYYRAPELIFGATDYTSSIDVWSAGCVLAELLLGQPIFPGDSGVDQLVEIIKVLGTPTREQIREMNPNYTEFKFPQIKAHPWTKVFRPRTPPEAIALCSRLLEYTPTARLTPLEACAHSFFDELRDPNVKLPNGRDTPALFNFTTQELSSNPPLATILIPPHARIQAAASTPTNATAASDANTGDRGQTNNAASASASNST
Experimental: GSK3β (human) is diluted to a 10× working stock in 50 mM Tris pH 7.5, 0.1 mM EGTA, 0.1 mM sodium vanadate, 0.1% β-mercaptoethanol, 1 mg/ml BSA. One unit equals the incorporation of 1 nmol of phosphate per minute phospho-glycogen synthase peptide 2 per minute.
In a final reaction volume of 25 μl, GSK3β (5-10 mU) is incubated with 8 mM MOPS 7.0, 0.2 mM EDTA, 20 μM […](p)EDEEE (phospho GS2 peptide), 10 mM MgAcetate and [γ-^33P-ATP] (specific activity approx 500 cpm/pmol, concentration as required). The reaction is initiated by the addition of Mg^2+[γ-^33P-ATP]. After incubation for 40 minutes at room temperature the reaction is stopped by the addition of 5 μl of a 3% phosphoric acid solution. 10 μl of the reaction is spotted onto a P30 filter mat and washed 3 times for 5 minutes in 50 mM phosphoric acid and once in methanol prior to drying and counting.

AuroraB = target: T2, AuroraB (Homo sapiens, UniProt Q96GD4); assay: Aurora B kinase assay (DELFIA); format: biochemical; details: 15 μM ATP
T2 construct: purchased ProQinase
T2 sequence (Q96GD4 whole entry): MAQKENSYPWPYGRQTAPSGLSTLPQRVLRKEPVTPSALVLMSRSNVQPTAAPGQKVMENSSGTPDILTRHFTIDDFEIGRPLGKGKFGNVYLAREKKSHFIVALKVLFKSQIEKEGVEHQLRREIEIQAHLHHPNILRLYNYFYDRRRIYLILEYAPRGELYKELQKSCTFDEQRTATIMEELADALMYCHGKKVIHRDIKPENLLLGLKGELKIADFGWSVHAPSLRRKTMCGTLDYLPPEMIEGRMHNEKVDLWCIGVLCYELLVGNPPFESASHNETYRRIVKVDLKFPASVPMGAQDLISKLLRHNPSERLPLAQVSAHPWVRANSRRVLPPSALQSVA
Experimental: Aurora activity was determined using a Dissociative Enhanced Lanthanide Fluoro Immuno Assay (DELFIA) with a GSK3-derived biotinylated peptide. The amount of phosphorylated peptide produced is quantified by means of a phospho-specific primary antibody and europium-labelled anti-rabbit IgG antibody using time-resolved fluorescence at λex=337 nm, λem=620 nm.
Assay reactions are set up in 96 well plates in a total reaction volume of 25 μl with 5 nM AuroraB (ProQinase), 3 μM Biotin-[…], 15 μM ATP and various dilutions of compound in 25 mM TRIS pH 8.5, 0.1 mg/ml BSA, 0.025% Surfact-Amps 20, 5 mM MgCl2, 1 mM DTT, & 2.5% DMSO. The reaction is allowed to proceed for 90 minutes at room temperature before stopping with 100 μl STOP buffer containing 100 mM EDTA, 0.05% Surfact-amps20 (Pierce) and 1× Blocker™ BSA in TBS (Pierce).
The detection step was carried out as described for AuroraA.

Activated CDK2/CyclinA = Activated CDK2/CyclinA (Homo sapiens, UniProt P24941); assay: Activated CDK2/CyclinA kinase inhibitory activity assay; format: biochemical; details: Example 10
Experimental: as §1
as §2, with “The % inhibition of the CDK2 activity is calculated and plotted in order to determine the concentration of test compound required to inhibit 50% of the CDK2 activity (IC50).” left out

IC50 (CDK1/CyclinB) | IC50 (GSK3β (human)) | IC50 (HCT-116 cell line; HCT-116, 72 hours, Alamar Blue) | IC50 (AuroraB) | IC50 (Activated CDK2/CyclinA) | Compound | IC50 (HCT-116 cell line; HCT-116, 72 h)
< 10 µM | < 1 µM | < 15 µM | < 0.1 µM | < 10 µM | O=C(Nc1scnc1-c1nc2ccccc2[nH]1)c1c(F)cccc1F [Example 1, N-[4-(1H-benzoimidazol-2-yl)-thiazol-5-yl]-2,6-difluoro-benzamide] | 
< 10 µM |  | < 1 µM |  | < 10 µM | O=C(Nc1scnc1-c1nc2ccc(CN3CCOCC3)cc2[nH]1)c1c(F)cccc1F [Example 2, 2,6-difluoro-N-[4-(6-morpholin-4ylmethyl-1H-benzoimidazol-2-yl)-thiazol-5-yl]benzamide] | 

Compound | IC50 (CDK1/CyclinB) | IC50 (GSK3β (human)) | IC50 (HCT-116 cell line; HCT-116, 72 hours, Alamar Blue) | IC50 (AuroraB) | IC50 (Activated CDK2/CyclinA) | IC50 (HCT-116 cell line; HCT-116, 72 h)
O=C(Nc1csnc1-c1nc2cc(CN3CCOCC3)ccc2[nH]1)c1c(F)cccc1F [Example 3, 2,6-difluoro-N-[3-(5-morpholin-4-ylmethyl-1H-benzoimidazol-2-yl)-isothiazol-4-yl]-benzamide] | < 10 µM |  |  |  |  | < 15 µM
